Results on 21 compounds are retold here after patent US5591752A, “Quinoline derivative” (Ube Industries, Ltd., priority 1993, dated 1997).

Like-named read-outs stand apart in the source and are kept apart here.

In this experiment the target is T1, Leukotriene D4 (LTD4) receptor (Cavia porcellus, UniProt Q2NNR5).
T1 construct: lung cell membrane fractions of guinea pigs were used; from tissue; host or cells: lung membrane fractions of Hartley strain male guinea pigs
T1 sequence (Q2NNR5 1-340): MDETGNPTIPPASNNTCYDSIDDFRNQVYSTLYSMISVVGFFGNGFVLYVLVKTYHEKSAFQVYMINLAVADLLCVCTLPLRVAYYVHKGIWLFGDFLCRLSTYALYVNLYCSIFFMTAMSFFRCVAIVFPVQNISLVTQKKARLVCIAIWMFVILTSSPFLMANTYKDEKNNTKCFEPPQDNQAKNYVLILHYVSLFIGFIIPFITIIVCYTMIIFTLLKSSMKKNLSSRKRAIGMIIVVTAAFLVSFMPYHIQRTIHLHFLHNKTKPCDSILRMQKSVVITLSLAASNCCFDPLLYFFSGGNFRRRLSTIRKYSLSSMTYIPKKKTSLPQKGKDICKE
The experiment can be described thus: Leukotriene D4 receptor binding test ([3H]ICI-198615 displacement, lung cell membrane fractions). Conditions: guinea pig lung membranes, [3H]ICI-198615 about 0.2 nM, pKi=-log Ki. The protocol: Leukotriene D4 receptor binding test
<Preparation of receptor samples>
As receptor samples, lung cell membrane fractions of guinea pigs were used. The membrane fractions were prepared according to the method of Ahn et al. (Ahn, H. S. & Barnett, A. (1986) Eur. J. Pharmacol., 127, 153.). After Hartley strain male guinea pigs (body weight: 400 to 500 g, supplied by Nihon SLC Co.) were killed by exsanguination, lungs were extracted and perfused with a physiological saline solution (Otsuka Seiyaku) from lung arteries. The extracted lungs were cut into pieces immediately or after the lungs were stored by freezing them at -80 ° C. A 10-fold amount of a buffer solution (pH 7.4) of 10 mM PIPES, 10 mM MgCl2, 10 mM CaCl2 and 50 mM NaCl was added thereto and the mixtures were made suspensions by a homogenizer (manufactured by Yamato Co., LP-41C Model). After the suspensions were filtered with gauze, the filtrates were centrifuged by an ultracentrifuge (manufactured by Hitachi Co., 70P-72 Model) with 50,000 g for 10 minutes, whereby membrane fractions were deposited. The membrane fractions were washed twice and then suspended in the same buffer solution to obtain receptor samples. Measurement of a protein concentration was conducted by the Lowry method (Lowry, O, H. et al. (1951) J. Biol. Chem., 193,265.) by using bovine serum albumin as a standard protein. The samples prepared (protein amount: 10 to 25 mg/ml) were stored by freezing them at -80° C. and used for experiments.
<Leukotriene D4 receptor binding test>
The leukotriene D4 (LTD4) receptor binding test was conducted according to the method of O'Sullivan et al. (O'Sullivan, B. P. & Mong, S. (1989) Mol. Pharmacol., 35, 795.). The receptor samples were diluted with a buffer solution (pH 7.4) of 10 mM PIPES, 10 mM MgCl2, 10 mM CaCl2 and 50 mM NaCl and 0.42 mg/ml in terms of a protein amount was used. As a labeling compound, [^3 H]ICI-198615 (produced by Du Pont Co., 60 Ci/mmol) which specifically binds to the LTD4 receptor was used. [^3 H]ICI-198615 and a compound to be tested were dissolved in dimethylsulfoxide and a 1/50 amount (2% by volume) of the solution was added to the receptor-diluted solutions, respectively. 500 μl of each reaction mixture was incubated at 25° C. for 40 minutes and then filtered with a glass fiber filter (Whatman, GF/B type) by using a cell harvester (manufactured by Brandel Co., M-30R Model). The filters were washed with 10 ml of an ice-cooled 100 mM NaCl-50 mM phosphate buffer solution (pH 7.5) and subjected to ultrasonic treatment in 9 ml of a liquid scintillator (manufactured by Nacalai Tesque, Co., Clear sol I) for 2 minutes. Thereafter, radioactivity was measured by a liquid scintillation counter (manufactured by Packard Co., 2000 CA Model). In a test of determining a dissociation constant of ICI-198615, 0.1 to 2 nM [^3 H]ICI-198615 and 10 μM non-radioactive ICI-198615 were used. In a test of determining inhibition constants of the respective compounds to be tested, [^3 H]ICI-198615 having a concentration of about 0.2 nM and the compounds each having a concentration of 0.1 pM to 0.1 mM were used.
<Data analysis of receptor binding test>
The dissociation constant (Kd) of ICI-198615 and the binding inhibition constants (Ki) of the respective compounds to be tested were determined by the following numerical formulae (A), (B) and (C).
wherein B: a concentration of a label [3H] which is bound to a receptor, Bmax: a maximum receptor-binding concentration of a label [^3 H], F: a concentration of a label [^3 H] which is not bound to a receptor, [L]: a concentration of a label [^3 H], IC50 : a concentration of a compound which inhibits 50% of binding of a label [^3 H] to a receptor and pKi: a logarithm, of a reciprocal of Ki.

The mark [1] stands for this setting: read-out: pKi value (converted).

As to `O=C(O)CCSC1c2ccccc2COc2ccc(OCc3ccc4ccc(Cl)cc4n3)cc21` (single isomer, unassigned; (+)) [Example 52, (+)-11-(2-Carboxyethylthio)-2-(7-chloroquinolin-2-yl)methoxy-6,11-dihydrodibenz[b,e]oxepine], the Ki (pKi value) is 0.316 nM. Under “pKi value”, `O=C(O)CCSC1c2ccccc2COc2ccc(OCc3ccc4cc(F)c(Cl)cc4n3)cc21` (single isomer, unassigned; (-)) [Example 51, (-)-11-(2-Carboxyethylthio)-2-(7-chloro-6-fluoroquinolin-2-yl)methoxy-6,11-dihydrodibenz[b,e]oxepine] had a Ki of 1.26 nM. The same measure, in the same setting: to `O=C(O)CCSC1c2ccccc2COc2ccc(OCc3ccc4ccc(Cl)cc4n3)cc21` (single isomer, unassigned; (-)) [Example 53, (-)-11-(2-Carboxyethylthio)-2-(7-chloroquinolin-2-yl)-methoxy-6,11-dihydrodibenz[b,e]oxepine] belongs 3.98 nM; to `O=C(O)CCSC1c2ccccc2COc2ccc(OCc3ccc4cc(Cl)ccc4n3)cc21` (stereo not drawn) [Example 5, 11-(2-Carboxyethylthio)-2-(6-chloroquinolin-2-yl)methoxy-6,11-dihydrodibenz[b,e]oxepine], 3.16 nM. Still for that read-out and setting: to `Cc1cccc2c1C(SCCC(=O)O)c1cc(OCc3ccc4ccc(Cl)cc4n3)ccc1OC2` (stereo not drawn) [Example 12, 11-(2-Carboxyethylthio)-2-(7-chloroquinolin-2-yl)methoxy-10-methyl-6,11-dihydrodibenz[b,e]oxepine] belongs 5.01 nM; to `O=C(O)CCSC1c2ccc(Br)cc2COc2ccc(OCc3ccc4ccc(Cl)cc4n3)cc21` (stereo not drawn) [Example 14, 8-Bromo-11-(2-carboxyethylthio)-2-(7-chloroquinolin-2-yl)-methoxy-6,11-dihydrodibenz[b,e]oxepine], 3.16 nM. On the same count and under the same terms, to `N#Cc1cccc2c1COc1ccc(OCc3ccc4ccc(Cl)cc4n3)cc1C2SCCC(=O)O` (stereo not drawn) [Example 15, 11-(2-Carboxyethylthio)-2-(7-Chloroquinolin-2-yl)methoxy-7-cyano-6,11-dihydrodibenz[b,e]oxepine] belongs 0.631 nM; to `O=C(O)CCSC1c2ccc(SCC(=O)O)cc2COc2ccc(OCc3ccc4ccc(Cl)cc4n3)cc21` (stereo not drawn) [Example 16, 11-(2-Carboxyethylthio)-8-carboxymethylthio-2-(7-chloroquinolin-2-yl)methoxy-6,11-dihydrodibenz[b,e]oxepine], 0.631 nM; to `O=C(O)CCSC1c2ccc(-c3nn[nH]n3)cc2COc2ccc(OCc3ccc4ccccc4n3)cc21` (stereo not drawn) [Example 17, 11-(2-Carboxyethylthio)-2-(quinolin-2-yl)methoxy-8-(tetrazol-5-yl)-6,11-dihydrodibenz[b,e]oxepine], 1.58 nM. With `O=C(O)CCSC1c2ccc(-c3nn[nH]n3)cc2COc2ccc(OCc3ccc4ccc(Cl)cc4n3)cc21` (stereo not drawn) [Example 18, 11-(2-Carboxyethylthio)-2-(7-chloroquinolin-2-yl)methoxy-8-(tetrazol-5-yl)-6,11-dihydrodibenz[b,e]oxepine], the Ki (pKi value) is 0.2 nM. In the case of `O=C(O)CCSC1c2cc(OCc3ccc4ccc(Cl)cc4n3)ccc2OCc2c(-c3nn[nH]n3)cccc21` (stereo not drawn) [Example 19, 11-(2-Carboxyethylthio)-2-(7-chloroquinolin-2-yl)methoxy-7-(tetrazol-5-yl)-6,11-dihydrodibenz[b,e]oxepine], the Ki (pKi value) is 0.501 nM.

Regarding `NC(=O)c1cccc2c1COc1ccc(OCc3ccc4ccc(Cl)cc4n3)cc1C2SCCC(=O)O` (stereo not drawn) [Example 20, 7-Carbamoyl-11-(2-carboxyethylthio)-2-(7-chloroquinolin-2-yl)methoxy-6,11-dihydrodibenz[b,e]oxepine], the Ki (pKi value) is 0.631 nM.

With `CC(SC1c2ccccc2COc2ccc(OCc3ccc4ccccc4n3)cc21)C(=O)O` (stereo not drawn) [Example 23, 11-(1-Carboxyethylthio)-2-(quinolin-2-yl)methoxy-6,11-dihydrodibenz[b,e]oxepine], under setting [1], the Ki was 5.01 nM.

For `O=C(O)CCCSC1c2ccccc2COc2ccc(OCc3ccc4ccc(Cl)cc4n3)cc21` (stereo not drawn) [Example 24, 11-(3-Carboxypropylthio)-2-(7-chloroquinolin-2-yl)methoxy-6,11-dihydrodibenz[b,e]oxepine], where the note is “pKi value”, the Ki was 2.51 nM. On to `O=C(O)COC1c2ccccc2COc2ccc(OCc3ccc4ccc(Cl)cc4n3)cc21` (stereo not drawn) [Example 27, 11-Carboxymethoxy-2-(7-chloroquinolin-2-yl)methoxy-6,11-dihydrobenz[b,e]oxepine], for which the Ki under setting [1] is 5.01 nM.

The compound `Clc1ccc2ccc(COc3ccc4c(c3)C(SCCc3nn[nH]n3)c3ccccc3CO4)nc2c1` (stereo not drawn) [Example 30, 2-(7-Chloroquinolin-2-yl)methoxy-11-[2-(tetrazol-5-yl)ethylthio]-6,11-dihydrodibenz[b,e]oxepine] showed a Ki (pKi value) of 2 nM.

For the compound `Clc1ccc2ccc(COc3ccc4c(c3)C(OCCc3nn[nH]n3)c3ccccc3CO4)nc2c1` (stereo not drawn) [Example 31, 2-(7-Chloroquinolin-2-yl)methoxy-11-[2-(tetrazol-5-yl)ethoxy]-6,11-dihydrodibenz[b,e]oxepine], under setting [1], the Ki was 2 nM. The same measure, in the same setting: to `O=C(CSC1c2ccccc2COc2ccc(OCc3ccc4ccc(Cl)cc4n3)cc21)NS(=O)(=O)c1ccccc1` (stereo not drawn) [Example 39, 11-[(Phenylsulfonyl)aminocarbonyl]methylthio-2-(7-chloroquinolin-2-yl)methoxy-6,11-dihydrodibenz[b,e]oxepine] belongs 2 nM; to `Cc1ccccc1S(=O)(=O)NC(=O)CCSC1c2ccccc2COc2ccc(OCc3ccc4ccc(Cl)cc4n3)cc21` (stereo not drawn) [Example 40, 2-(7-Chloroquinolin-2-yl)methoxy-11-[2-[(2-methylphenylsulfonyl)aminocarbonyl]ethylthio]-6,11-dihydrodibenz[B,e]oxepine], 2.51 nM. With `O=C(CSC1c2ccccc2COc2ccc(OCc3ccc4ccccc4n3)cc21)NS(=O)(=O)c1ccccc1` (stereo not drawn) [Example 41, 11-[(Phenylsulfonyl)aminocarbonyl]methylthio-2-(quinolin-2-yl)methoxy-6,11-dihydrodibenz[b,e]oxepine], the Ki under setting [1] is 1.26 nM.

Compound `CC(=O)CCc1ccc2c(c1)COc1ccc(OCc3ccc4cc(F)c(Cl)cc4n3)cc1C2SCCC(=O)O` (stereo not drawn) [Example 48, 11-(2-Carboxyethylthio)-2-(7-chloro-6-fluoroquinolin-2-yl)methoxy-8-(2-acetylethyl)-6,11-dihydrodibenz[b,e]oxepine] showed a Ki (pKi value) of 0.2 nM.
